Target: T1, Msh2–Msh6 (Saccharomyces cerevisiae, UniProt P25847+Q03834, Q03834:K988A)
T1 sequence (P25847 1-964): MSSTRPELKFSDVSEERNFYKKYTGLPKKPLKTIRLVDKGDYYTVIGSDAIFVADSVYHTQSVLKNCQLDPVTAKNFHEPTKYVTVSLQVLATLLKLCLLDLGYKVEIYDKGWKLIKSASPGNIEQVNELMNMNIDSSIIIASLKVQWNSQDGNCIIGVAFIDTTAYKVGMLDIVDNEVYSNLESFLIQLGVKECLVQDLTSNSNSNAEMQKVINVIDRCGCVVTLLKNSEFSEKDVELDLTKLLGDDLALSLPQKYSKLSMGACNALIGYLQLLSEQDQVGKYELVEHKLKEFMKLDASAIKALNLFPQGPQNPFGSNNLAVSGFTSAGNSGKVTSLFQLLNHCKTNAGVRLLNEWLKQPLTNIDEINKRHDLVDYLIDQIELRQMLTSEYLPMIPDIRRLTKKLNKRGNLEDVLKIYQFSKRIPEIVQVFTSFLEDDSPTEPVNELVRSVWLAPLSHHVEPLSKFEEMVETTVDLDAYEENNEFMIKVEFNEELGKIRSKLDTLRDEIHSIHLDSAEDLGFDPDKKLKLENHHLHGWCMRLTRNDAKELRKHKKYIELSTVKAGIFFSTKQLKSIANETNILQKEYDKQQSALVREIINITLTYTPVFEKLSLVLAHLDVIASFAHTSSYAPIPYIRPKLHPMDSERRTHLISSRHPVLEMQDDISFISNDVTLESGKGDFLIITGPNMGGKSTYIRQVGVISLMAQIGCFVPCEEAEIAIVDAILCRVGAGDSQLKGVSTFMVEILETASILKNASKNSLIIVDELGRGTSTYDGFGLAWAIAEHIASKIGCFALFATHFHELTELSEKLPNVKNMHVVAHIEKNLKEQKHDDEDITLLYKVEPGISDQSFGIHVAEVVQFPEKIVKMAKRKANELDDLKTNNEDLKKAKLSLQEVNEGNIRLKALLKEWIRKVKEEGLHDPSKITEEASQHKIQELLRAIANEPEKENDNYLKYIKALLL
T1 sequence (Q03834 1-1242 K988A): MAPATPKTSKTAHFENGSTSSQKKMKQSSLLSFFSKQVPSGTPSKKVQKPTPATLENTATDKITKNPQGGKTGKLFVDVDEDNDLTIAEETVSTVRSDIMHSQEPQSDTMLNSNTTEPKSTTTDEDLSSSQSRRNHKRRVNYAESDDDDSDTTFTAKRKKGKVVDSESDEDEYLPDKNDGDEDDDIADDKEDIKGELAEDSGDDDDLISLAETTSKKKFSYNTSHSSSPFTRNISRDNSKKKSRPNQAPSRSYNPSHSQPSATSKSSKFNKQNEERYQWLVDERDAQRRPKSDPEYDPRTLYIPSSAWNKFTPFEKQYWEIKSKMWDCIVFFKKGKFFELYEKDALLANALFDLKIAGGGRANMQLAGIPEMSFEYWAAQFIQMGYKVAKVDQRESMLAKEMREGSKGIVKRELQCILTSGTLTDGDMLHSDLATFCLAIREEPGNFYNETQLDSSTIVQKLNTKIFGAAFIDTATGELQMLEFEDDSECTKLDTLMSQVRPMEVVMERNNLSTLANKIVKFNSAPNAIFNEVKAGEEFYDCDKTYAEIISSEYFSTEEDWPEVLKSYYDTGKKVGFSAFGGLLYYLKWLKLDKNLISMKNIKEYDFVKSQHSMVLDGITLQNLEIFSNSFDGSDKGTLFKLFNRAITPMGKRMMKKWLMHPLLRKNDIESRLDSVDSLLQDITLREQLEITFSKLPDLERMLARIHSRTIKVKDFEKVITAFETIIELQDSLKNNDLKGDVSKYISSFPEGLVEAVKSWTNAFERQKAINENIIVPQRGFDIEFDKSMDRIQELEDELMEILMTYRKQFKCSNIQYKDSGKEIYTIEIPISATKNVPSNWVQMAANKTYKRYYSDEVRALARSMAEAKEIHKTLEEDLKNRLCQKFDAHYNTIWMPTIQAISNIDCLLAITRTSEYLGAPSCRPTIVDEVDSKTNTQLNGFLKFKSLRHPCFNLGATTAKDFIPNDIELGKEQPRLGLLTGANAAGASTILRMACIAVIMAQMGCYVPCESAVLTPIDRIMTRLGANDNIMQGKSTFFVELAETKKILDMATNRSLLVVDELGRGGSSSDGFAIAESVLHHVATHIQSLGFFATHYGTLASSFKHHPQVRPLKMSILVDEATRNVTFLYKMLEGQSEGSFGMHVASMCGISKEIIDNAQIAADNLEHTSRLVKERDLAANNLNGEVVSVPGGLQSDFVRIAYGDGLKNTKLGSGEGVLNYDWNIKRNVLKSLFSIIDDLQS
Assay: UV cross-linking of [γ-32P]ATP, SDS-PAGE, phosphorimaging
Format: binding
Details: labelled compound; no Mg2+, EDTA, pH 8, on ice; Msh2 site at 60 μM ATP, Msh6 site at 1 μM ATP

`Nc1ncnc2c1ncn2[C@@H]1O[C@H](COP(=O)(O)OP(=O)(O)OP(=O)(O)O)[C@@H](O)[C@H]1O` [ATP] was tested, and the “relative ATP binding” value was “Msh2–Msh6(K988A) and Msh2–Msh6(K988R) mutant complexes had partial ATP binding defects at the Msh2 subunit”.

— PMC6254361, “The properties of Msh2–Msh6 ATP binding mutants suggest a signal amplification mechanism in DNA mismatch repair” (The Journal of Biological Chemistry, 2018)
